Test results from patent publication US12398107B2, “Fungicidal nitroanilino substituted pyrazoles” (FMC Corporation, priority 2018, dated 2025).

Tests used:
Assay type in all cases: in vivo
[1] = tested on: Phakopsora pachyrhizi; assay: Test D: Asian soybean rust, preventive spray on soybean seedlings; conditions: 50 ppm, 100 = 100% disease control, 0 = no control
Outline: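 Soybean seedlings sprayed to run-off with compound suspension (ppm, in 50/50 acetone/water with 250 ppm PEG400), inoculated next day with P. pachyrhizi spores, held 24 h saturated at 22°C then 8 days at 22°C. Visual rating 0-100% disease control relative to controls.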

[2] = tested on: Blumeria graminis f. sp. tritici; assay: Test C: wheat powdery mildew, preventive spray on wheat seedlings; conditions: 50 ppm, rated after 8 days, 100 = 100% disease control, 0 = no control
Outline: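 Compound dissolved in acetone (3% of final volume), then suspended in 50/50 acetone/water with 250 ppm PEG400 and sprayed to run-off on wheat seedlings. Inoculated next day with B. graminis f. sp. tritici spore dust, kept 8 days at 20° C; visual rating, 100 = full control, 0 = none, relative to controls.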

[3] = tested on: Septoria tritici; assay: Test A: wheat leaf blotch, preventive spray on wheat seedlings; conditions: 50 ppm, 100 = 100% disease control, 0 = no control relative to controls
Outline: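 Compounds were suspended in acetone/water (50/50) with 250 ppm PEG400 and sprayed to run-off on wheat seedlings. The next day the seedlings were inoculated with Septoria tritici spores, held 48 h at 24 °C in saturated humidity, then 17 days at 20 °C. Disease control was rated 0–100 relative to controls.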

[4] = tested on: Alternaria solani; assay: Test F: tomato early blight, preventive spray on tomato seedlings; conditions: 50 ppm, 100 = 100% disease control, 0 = no control
Outline: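 Compounds in acetone/water (50/50) with 250 ppm PEG400, dosed in ppm, sprayed to run-off on tomato seedlings; next day inoculated with A. solani spores. Held 48 h saturated at 27° C, then 3 days at 20° C; visual rating 0–100% disease control relative to controls.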

[5] = tested on: Puccinia recondita f. sp. tritici; assay: Test B: wheat leaf rust, preventive spray on wheat seedlings; conditions: 50 ppm, 100 = 100% disease control, 0 = no control relative to controls
Outline: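 Compounds in acetone/water (50/50) with 250 ppm PEG400, sprayed to run-off on wheat seedlings at stated ppm; inoculated next day with P. recondita spores. Held 24 h saturated at 20° C., then 7 days in growth chamber at 20° C.; rating 0–100 = % disease control vs controls.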

[6] = tested on: Botrytis cinerea; assay: Test E: tomato Botrytis, preventive spray on tomato seedlings; conditions: 50 ppm, 100 = 100% disease control, 0 = no control
Outline: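 Tomato seedlings sprayed to run-off with compound (ppm) in acetone/water with 250 ppm PEG400, then inoculated next day with B. cinerea spores. Held 48 h at 20 °C in saturated atmosphere, then 3 days at 24 °C. Visual rating 0–100% disease control relative to untreated controls.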

C#CCOc1ccc(Nc2c(-c3ccc(F)cc3Cl)c(C)nn2C)c([N+](=O)[O-])c1 [Compound 5]
Test D disease control rating (Asian soybean rust) [1]: 19%
Test C disease control rating (wheat powdery mildew) [2]: 76%
Test A disease control rating (wheat leaf blotch) [3]: 97%
Test F disease control rating (tomato early blight) [4]: 0%
Test B disease control rating (wheat leaf rust) [5]: 86%
Test E disease control rating (tomato Botrytis) [6]: 95%

Cc1nn(C)c(Nc2c(Cl)cc(Cl)cc2[N+](=O)[O-])c1-c1ccc(C#N)cc1Cl [Compound 116]
Test D disease control rating (Asian soybean rust) [1]: 0%
Test C disease control rating (wheat powdery mildew) [2]: 56%
Test A disease control rating (wheat leaf blotch) [3]: 99%
Test F disease control rating (tomato early blight) [4]: 82%
Test B disease control rating (wheat leaf rust) [5]: 99%
Test E disease control rating (tomato Botrytis) [6]: 63%

COc1cc(F)c(Nc2c(-c3ccc(C#N)cc3Cl)c(C)nn2C)c([N+](=O)[O-])c1 [Compound 166]
Test D disease control rating (Asian soybean rust) [1]: 98%
Test C disease control rating (wheat powdery mildew) [2]: 98%
Test A disease control rating (wheat leaf blotch) [3]: 99%
Test F disease control rating (tomato early blight) [4]: 100%
Test B disease control rating (wheat leaf rust) [5]: 100%
Test E disease control rating (tomato Botrytis) [6]: 99%

Cc1cccc([N+](=O)[O-])c1Nc1c(-c2ccc(F)cc2F)c(C)nn1C [Compound 177]
Test D disease control rating (Asian soybean rust) [1]: 0%
Test C disease control rating (wheat powdery mildew) [2]: 50%
Test A disease control rating (wheat leaf blotch) [3]: 100%
Test F disease control rating (tomato early blight) [4]: 9%
Test B disease control rating (wheat leaf rust) [5]: 97%
Test E disease control rating (tomato Botrytis) [6]: 100%

CCc1nn(C)c(Nc2c(F)cc(C)cc2[N+](=O)[O-])c1-c1ccc(F)cc1Cl [Compound 137]
Test D disease control rating (Asian soybean rust) [1]: 91%
Test C disease control rating (wheat powdery mildew) [2]: 100%
Test A disease control rating (wheat leaf blotch) [3]: 100%
Test F disease control rating (tomato early blight) [4]: 99%
Test B disease control rating (wheat leaf rust) [5]: 100%
Test E disease control rating (tomato Botrytis) [6]: 99%

Cc1nn(C)c(Nc2ccccc2[N+](=O)[O-])c1-c1ccc(F)cc1Cl [Compound 126]
Test D disease control rating (Asian soybean rust) [1]: 0%
Test C disease control rating (wheat powdery mildew) [2]: 96%
Test A disease control rating (wheat leaf blotch) [3]: 98%
Test F disease control rating (tomato early blight) [4]: 68%
Test B disease control rating (wheat leaf rust) [5]: 85%
Test E disease control rating (tomato Botrytis) [6]: 100%

Cc1nn(C)c(Nc2c(Cl)cc(F)cc2[N+](=O)[O-])c1-c1ccc(F)cc1Br [Compound 43]
Test D disease control rating (Asian soybean rust) [1]: 65%
Test C disease control rating (wheat powdery mildew) [2]: 97%
Test A disease control rating (wheat leaf blotch) [3]: 100%
Test F disease control rating (tomato early blight) [4]: 64%
Test B disease control rating (wheat leaf rust) [5]: 100%
Test E disease control rating (tomato Botrytis) [6]: 96%

Cc1nn(C)c(Nc2c(Cl)cccc2[N+](=O)[O-])c1-c1ccc(C#N)cc1Cl [Compound 123]
Test D disease control rating (Asian soybean rust) [1]: 0%
Test C disease control rating (wheat powdery mildew) [2]: 81%
Test A disease control rating (wheat leaf blotch) [3]: 100%
Test F disease control rating (tomato early blight) [4]: 66%
Test B disease control rating (wheat leaf rust) [5]: 97%
Test E disease control rating (tomato Botrytis) [6]: 100%

Cc1nn(C)c(Nc2c(F)cc(I)cc2[N+](=O)[O-])c1-c1ccc(F)cc1Cl [Compound 47]
Test D disease control rating (Asian soybean rust) [1]: 92%
Test C disease control rating (wheat powdery mildew) [2]: 89%
Test A disease control rating (wheat leaf blotch) [3]: 100%
Test F disease control rating (tomato early blight) [4]: 96%
Test B disease control rating (wheat leaf rust) [5]: 97%
Test E disease control rating (tomato Botrytis) [6]: 95%

Cc1nn(C)c(Nc2c(Cl)cc(F)cc2[N+](=O)[O-])c1-c1ccc(C#N)cc1Cl [Compound 18, 3-chloro-4-[5-[(2-chloro-4-fluoro-6-nitrophenyl)amino]-1,3-dimethyl-1H-pyrazol-4-yl]benzonitrile]
pest or weed control at 50 ppm ([1]; Phakopsora pachyrhizi, read-out: Test D disease control rating (Asian soybean rust)): 92%
pest or weed control at 50 ppm ([2]; Blumeria graminis, 192 h, read-out: Test C disease control rating (wheat powdery mildew)): 89%
pest or weed control at 50 ppm ([3]; Zymoseptoria tritici, read-out: Test A disease control rating (wheat leaf blotch)): 100%
pest or weed control at 50 ppm ([4]; Alternaria solani, read-out: Test F disease control rating (tomato early blight)): 99%
pest or weed control at 50 ppm ([5]; read-out: Test B disease control rating (wheat leaf rust)): 100%
pest or weed control at 50 ppm ([6]; Botrytis cinerea, read-out: Test E disease control rating (tomato Botrytis)): 100%

Cc1nn(C)c(Nc2c(Cl)cccc2[N+](=O)[O-])c1-c1ccc(F)cc1Cl [Compound 108]
Test D disease control rating (Asian soybean rust) [1]: 86%
Test C disease control rating (wheat powdery mildew) [2]: 97%
Test A disease control rating (wheat leaf blotch) [3]: 100%
Test F disease control rating (tomato early blight) [4]: 77%
Test B disease control rating (wheat leaf rust) [5]: 100%
Test E disease control rating (tomato Botrytis) [6]: 100%

Cc1nn(C)c(Nc2ccccc2[N+](=O)[O-])c1-c1ccc(C#N)cc1F [Compound 134]
Test D disease control rating (Asian soybean rust) [1]: 0%
Test C disease control rating (wheat powdery mildew) [2]: 71%
Test A disease control rating (wheat leaf blotch) [3]: 100%
Test F disease control rating (tomato early blight) [4]: 0%
Test B disease control rating (wheat leaf rust) [5]: 23%
Test E disease control rating (tomato Botrytis) [6]: 70%

Cc1cccc([N+](=O)[O-])c1Nc1c(-c2c(F)cc(F)cc2Cl)c(C)nn1C [Compound 153]
Test D disease control rating (Asian soybean rust) [1]: 73%
Test C disease control rating (wheat powdery mildew) [2]: 99%
Test A disease control rating (wheat leaf blotch) [3]: 99%
Test F disease control rating (tomato early blight) [4]: 72%
Test B disease control rating (wheat leaf rust) [5]: 100%
Test E disease control rating (tomato Botrytis) [6]: 99%

CCc1nn(C)c(Nc2ccc(OC)cc2[N+](=O)[O-])c1-c1ccc(F)cc1Cl [Compound 173]
Test D disease control rating (Asian soybean rust) [1]: 0%
Test C disease control rating (wheat powdery mildew) [2]: 98%
Test A disease control rating (wheat leaf blotch) [3]: 100%
Test F disease control rating (tomato early blight) [4]: 93%
Test B disease control rating (wheat leaf rust) [5]: 100%
Test E disease control rating (tomato Botrytis) [6]: 98%

COc1ccc(-c2c(C)nn(C)c2Nc2c(F)cc(Br)cc2[N+](=O)[O-])c(Cl)c1 [Compound 182]
Test D disease control rating (Asian soybean rust) [1]: 0%
Test C disease control rating (wheat powdery mildew) [2]: 76%
Test A disease control rating (wheat leaf blotch) [3]: 100%
Test F disease control rating (tomato early blight) [4]: 99%
Test B disease control rating (wheat leaf rust) [5]: 99%
Test E disease control rating (tomato Botrytis) [6]: 100%
